From patent publication US20230257374A1, “NOVEL KRAS G12C PROTEIN INHIBITOR, PREPARATION METHOD THEREFOR, AND USE THEREOF” (INNOVENT BIOLOGICS (SUZHOU) CO., LTD., priority 2019, published 2023)
Like-named read-outs stand apart in the source and are kept apart here. One block for each molecule: values may come before it.

Key:
KRAS G12C protein = biological target: T1, KRAS G12C protein (Homo sapiens, UniProt P01116, G12C); experiment: ERK protein phosphorylation assay (p-ERK) in H358 cells; type: cell-based; parameters: scale not given here; conditions: H358 cells expressing KRAS G12C protein, 3 h incubation with compound; read-out: IC50, inhibiting phosphorylation of KRAS G12C protein-mediated downstream signaling (p-ERK)
T1 construct: H358 cells (ATCC, CRL-5807) expressing KRAS G12C protein; host or cells: H358 (NCI-H358) cells
T1 sequence (P01116 1-188 isoform P01116-2 G12C): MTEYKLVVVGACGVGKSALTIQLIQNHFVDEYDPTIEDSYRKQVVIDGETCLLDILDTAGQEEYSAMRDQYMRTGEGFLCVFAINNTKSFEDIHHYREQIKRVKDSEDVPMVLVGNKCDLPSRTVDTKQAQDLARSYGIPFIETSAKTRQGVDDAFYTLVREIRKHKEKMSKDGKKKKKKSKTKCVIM
Method: The cells were cultured in a 5% CO2 cell incubator for 16 h. The serially diluted compound was added to the cell medium with Echo550 at a final DMSO concentration of 0.5%, and the incubation was continued for 3 h. Then 8% paraformaldehyde (Solarbio, P1112) was added at 40 μL/well, followed by incubation at room temperature for 20 min. After one washing with PBS, cold 100% methanol was added at 40 μL/well for permeabilization for 10 min. […] Washing with PBST was performed 3 times, with 2 min of incubation for each washing. […] Washing with PBST was performed 3 times, with 2 min of incubation for each washing. Finally, the cell culture plate was inverted and centrifuged at 1000 rpm for 1 min, after which fluorescence signals were read using Odyssey CLx.

[1] = system: MIA PaCa-2 cell line (K-RAS G12C); experiment: cells; type: cell-based
Method: (§1) a) On day 1, seed cells were placed in T75 a flask. b) On day 3, the medium was taken out and washed once with DPBS. c) Cells were trypsinized with 2 mL TrypLE™ Express enzyme at room temperature (RT) or 37° C. until cells detached. d) 5 mL of fresh medium was added to suspend the cells, and then the suspension was centrifuged at 1000 rpm and room temperature for 5 min. e) The supernatant was discarded, and the cells were resuspended in 5 mL of fresh medium and counted using Countess™ H. f) The cells were seeded back into the T75 flask for further culture or placed into an assay plate for 3D cell proliferation assay.
(§2) The cells were seeded at a density of 600 cells/well in a 384-well plate with 40 μL of medium per well and a final DMSO concentration of 0.5%. b) On day 4, a 3D CTG reagent was added to each well, followed by shaking at room temperature for 1 h. c) The signals were recorded using Envision.
(§3) a) Robustness was examined using 0.5% DMSO and data of blank control medium: H=mean (DMSO); L=mean (medium); SD (H)=STDEV (DMSO); SD (L)=STDEV (medium);
(§4) Y=peak valley value+(peak top value−peak valley value)/(1+10^((Log IC50−X)×HillSlope));
(§5) X: logarithm of compound concentration; Y: percent inhibition (% inhibition); Peak top and peak valley values: the plateau period units are the same as Y; log IC50: the same logarithmic unit as X; HillSlope: slope coefficient or Hill slope.

[2] = system: H1373 cell line (K-RAS G12C); experiment: cells; type: cell-based
Method: as §1, §2, §3, §4, §5

[3] = system: PC-9 cell line (K-RAS wild type); experiment: cells; type: cell-based; conditions: Homo sapiens, PC-9, 96 h; 3D culture, CellTiter-Glo 3D, read on day 4
Method: as §1, §2, §3, §4, §5

[4] = Stability test in human plasma
Method: (§6) To examine the stability of the test compounds in plasma, representative compounds were selected for evaluation.
(§7) Preparation of stock solution: a test compound was dissolved in DMSO to prepare a 1 mM stock solution for later use; Propantheline Bromide was dissolved in acetonitrile to prepare a 1 mM stock solution as a positive control for later use.
(§8) To each well was added 2 μL of the stock solution of the test compound and the stock solution of the positive control such that the final concentrations were 5 KM and the concentration of the organic solvent was 0.5%. Each compound was prepared in duplicate, followed by incubation at 37° C. 50 μL of samples were taken from the reaction samples in equal amounts at 0, 30, 60, 120, 180 and 240 minutes, and 450 μL of cold acetonitrile containing an internal standard was added to terminate the reaction. […] 100 μL of the supernatants were transferred to a new plate, dilute with ultra-pure water, and analyzed by LC-MS/MS.
(§9) Data results were calculated according to peak area ratios.
(§10) The percentage of remaining compound for each time point was calculated as follows:
(§11) Remaining percentagemin(%)=peak area ratiosmin/peak area ratiomin×100%
(§12) where peak area ratios represents the peak area ratio of the test compound to the internal standard compound at t min; peak area ratiomin represents the peak area ratio of the test compound to the internal standard compound at 0 min (initial).

[5] = system: H358 cell line (K-RAS G12C); experiment: cells; type: cell-based, human
Method: as §1, §2, §3, §4, §5

[6] = system: NCI-H358 tumor (K-RAS G12C mutation); type: in vivo, BALB/c nude mice; conditions: for Tumor regression: animals with regression / group of 8
Method: The cells were digested with trypsin-EDTA twice a week for passaging as per conventional practice. When the cell saturation reached 80%-90% and a required amount was achieved, the cells were collected and counted for later use. […] 5% DMSO/5% Solutol/90% water was used as a blank control. 3) Tumor inoculation and drug administration: BALB/c nude mice, female, 6-8 weeks old, weighing 18-20 g. The experiment started after 3-7 days of adaptive feeding. 0.1 mL of NCI-H358 cells (5×10^6 cells) were inoculated subcutaneously on the right back of each mouse. The mice were grouped for administration when the average tumor volume reached approximately 150 mm^3. The animals were weighed before administration and the tumor volume was measured. Grouping was randomly performed according to the tumor volume.
Animals were monitored daily for health and death, and routine examinations include observation of the effect of tumor growth and drug treatment on the daily performance of the animals, such as behavioral activities, food and water intake, weight changes (measured once every other day), appearance, or other abnormal conditions. Animal mortality and side effects within each group were recorded based on the number of animals in the group.
Tumor diameters were measured 2-3 times weekly using a vernier caliper.
The tumor volume was calculated as follows: […]
where a and b represent the long and short diameters of the tumor, respectively.
The anti-tumor therapeutic effect of the compound was evaluated by tumor growth inhibition rate TGI (%) or relative tumor proliferation rate T/C (%).
TGI (%) was calculated as follows: […]
T/C (%) was calculated as follows: […]
where TRTV represents the relative tumor volume of the treatment group; CRTV represents the relative tumor volume of the solvent control group.
Based on the results of tumor measurement, the relative tumor volume (RTV) was calculated as follows: […]
where V0 represents the average tumor volume measured at the time of grouping and administration (i.e., d0), Vt represents the average tumor volume in a certain measurement, and TRTV and CRTV take the data on the same day.
After the completion of the experiment, tumors were weighed, and the percentage of Tweight/Cweight was calculated, where Tweight and Cweight represent the tumor weights of the treatment group and the solvent control group, respectively.
Data calculation and analysis: T test was employed for comparison between two groups. One-way ANOVA was employed for comparison between three or more groups. If there is a significant difference in F-values, multiple comparisons should be made after ANOVA analysis. All data analyses were performed with SPSS 17.0. p<0.05 was defined as a significant difference.

in vitro = conditions: microsomes
Method: To examine the in vitro metabolic stability of the test compounds in liver microsomes of different species, representative compounds were selected, and their stability was evaluated by measuring the concentration of the test compounds in the incubation system using LC/MS/MS and calculating their intrinsic clearance in the microsome system.
The method is specifically as follows: each compound was first dissolved in DMSO to prepare a 200 μM working solution and added to the system solution at the time of testing to form a solution with a final concentration of 1 μM.
The microsomes were stored in a −80° C. freezer.
Preparation of incubation system: an incubation system was prepared as described in the table below.
25 μL, of NADPH or phosphate buffered saline was transferred to the incubation system described above, and 2 μL, of 200 μM of the test compound or verapamil was added. The sample with NADPH added was prepared in duplicate; the NADPH negative sample was prepared in single parallel. 30 μL, of suspension was taken at 0.5, 5, 15, 30 and 60 minutes. The reaction system was terminated by adding 180 μL, of acetonitrile containing an internal standard and vortexed for 10 min. […] 100 μL, of the supernatant was transferred to a feeding plate, and 100 μL, of purified water was added. The mixture was well mixed for UPLC-MS/MS analysis.
The results based on the data were obtained by calculation according to the peak area ratio, and the peak area was detected through an extracted ion chromatogram.
The slope value (k) was determined by linear fitting of the natural logarithm of drug elimination percentage over time.

Caco-2 cells = experiment: in vitro; conditions: Caco-2
Method: Drug penetration test: the Transwell culture plate was retrieved from the incubator. […] All samples were prepared in double parallel. The integrity of the cell monolayer membrane after 2 hours of incubation was assessed using leakage of fluorescein; fluorescein stock solution was diluted with HBSS (25 mM HEPES, pH 7.4) to a final concentration of 100 μM. 100 μL of fluorescein solution was added to each well of the upper Transwell plate and 300 μL of HBSS (25 mM HEPES, pH 7.4) was added to each well of the lower receiving plate; after incubation at 37° C. for 30 min, 80 μL of the solution was pipetted from the upper and lower layers of each well to a new 96-well plate.
The apparent permeability coefficients (Papp, unit: cm/s) of the compounds in Caco-2 cells were calculated from the specific concentrations at the acceptor and donor ends, and the specific calculation formula is as follows: […]
where VA represents the volume of the acceptor end solution (0.3 mL for Ap→Bl, 0.1 mL for Bl→Ap); Area represents the area of the Transwell-96 well plate (0.143 cm^2); time represents the incubation time (unit: s); [drug]acceptor represents the drug concentration (ratio of peak area to internal standard area) at the acceptor end; [drug]initial, donor represents the drug concentration at the donor end (ratio of peak area to internal standard area).
The efflux ratio was calculated as follows: […]
where Papp (B-A) represents the apparent permeability coefficient from base end to top end; Papp (A-B) represents the apparent permeability coefficient from top end to base end.

[7] = human, plasma
Method: as §6, §7, §8, §9, §10, §11, §12

IC50 (KRAS G12C protein): < 1000 nM
IC50 ([1]; Homo sapiens, MIA PaCa-2, 96 h, 3D culture, CellTiter-Glo 3D, read on day 4, read-out: MIA PaCa-2 (K-RAS G12C) IC50): 0.44 nM
IC50 ([2]; Homo sapiens, NCI-H1373, 96 h, 3D culture, CellTiter-Glo 3D, read on day 4, read-out: H1373 (K-RAS G12C) IC50): 0.32 nM
IC50 [3]: 4690 nM
Remaining percentage (%) 0 min ([4]; human plasma, 37° C., 0 min): 100.00%
Remaining percentage (%) 30 min ([4]; human plasma, 37° C., 30 min): 97.00%
Remaining percentage (%) 60 min ([4]; human plasma, 37° C., 60 min): 92.97%
Remaining percentage (%) 120 min ([4]; human plasma, 37° C., 120 min): 78.91%
Remaining percentage (%) 180 min ([4]; human plasma, 37° C., 180 min): 59.98%
Remaining percentage (%) 240 min ([4]; human plasma, 37° C., 240 min): 47.82%
half-life at 5 μM ([4]; human, plasma): 3.63 h
IC50 ([5]; Homo sapiens, NCI-H358, 96 h, 3D culture, CellTiter-Glo 3D, read on day 4, read-out: H358 (K-RAS G12C) IC50): 0.34 nM
Compound: [2H]C([2H])([2H])c1cccc2cccc(N3CCc4c(nc(OC[C@@H]5CCCN5C([2H])([2H])[2H])nc4N4CCN(C(=O)C=C)[C@@H](CC#N)C4)C3)c12 [Compound 17, 2-((S)-1-acryloyl-4-(7-(8-(methyl-d3)naphthalen-1-yl)-2-(((S)-1-(methyl-d3)pyrrolidin-2-yl)methoxy)-5,6,7,8-tetrahydropyrido[3,4-d]pyrimidin-4-yl)piperazin-2-yl)acetonitrile]
Selectivity (fold number of mutant vs. wild type) ([1]; PC-9 IC50 vs. MIA PaCa-2 IC50): 10659 fold
Selectivity (fold number of mutant vs. wild type) ([2]; PC-9 IC50 vs. H1373 IC50): 14656 fold
Selectivity (fold number of mutant vs. wild type) ([5]; PC-9 IC50 vs. H358 IC50): 13794 fold
Day 0 Tumor volume (mm^3) Vaverage ± SEM ([6]; Day 0 (at grouping, before administration), 15 mg/kg PO QD group): 151 ± 10 mm^3
Day 21 Tumor volume (mm^3) Vaverage ± SEM ([6]; Day 21, 15 mg/kg PO QD): 90 ± 12 mm^3
Tumor inhibition rate TGI (%) ([6]; Day 21, 15 mg/kg PO QD): 110.7%
Tumor regression ([6]; Day 21, 15 mg/kg PO QD): 8/8
Tumor regression ([6]; Day 21, 15 mg/kg PO QD, listed as compound 17): the tumors in all of the animals regressed
Day 0 Body weight (g) Waverage ± SEM ([6]; mouse, in vivo, po, 15 mg/kg): 22.6 ± 0.7 g

CLint (μL/min/mg protein) (in vitro; human): 54.30 μL/min/mg protein
t1/2 (in vitro; human): 0.4263 h
CLint (μL/min/mg protein) (in vitro; mouse): 74.97 μL/min/mg protein
t1/2 (in vitro; mouse): 0.3082 h
Efflux ratio (Caco-2 cells): 16.31
t1/2 [7]: 1.608 h
Remaining percentage (%) 0 min ([7]; 0 h): 100.00%
Remaining percentage (%) 30 min ([7]; 0.5 h): 88.91%
Remaining percentage (%) 60 min ([7]; 1 h): 82.31%
Remaining percentage (%) 120 min ([7]; 2 h): 55.64%
Remaining percentage (%) 180 min ([7]; 3 h): 32.06%
Remaining percentage (%) 240 min ([7]; 4 h): 18.12%
Compound: C=CC(=O)N1CCN(c2nc(OC[C@@H]3CCCN3C)nc3c2CCN(c2cccc4cccc(C)c24)C3)C[C@@H]1CC#N [MRTX-1257, reference compound]
